Key:
[1] = test system: Blumeria graminis f. sp. tritici (Erysiphe graminis f. sp. tritici); experiment: Blumeria graminis f. sp. tritici / wheat / leaf disc preventative (powdery mildew on wheat); assay type: in vivo; conditions: foliar, wheat leaf segments cv. Kanzler, inoculated 1 day after application, assessed 6-8 days after application, read-out: control of Blumeria graminis f. sp. tritici (percent disease control compared to untreated)
Source text: Example B4: Blumeria graminis f. sp. tritici (Erysiphe graminis f. sp. tritici)/Wheat/Leaf Disc Preventative (Powdery Mildew on Wheat) Wheat leaf segments cv. Kanzler are placed on agar in a multiwell plate (24-well format) and sprayed with the formulated test compound diluted in water. The leaf disks are inoculated by shaking powdery mildew infected plants above the test plates 1 day after application. […] […]-192.

[2] = test system: Glomerella lagenarium (Colletotrichum lagenarium); experiment: Glomerella lagenarium (Colletotrichum lagenarium) / liquid culture (anthracnose); assay type: cell-based; conditions: Colletotrichum orbiculare, PDB potato dextrose broth, 24° C., 3-4 days after application, read-out: control of Glomerella lagenarium (inhibition of growth, photometric)
Method: Example B3: Glomerella lagenarium (Colletotrichum lagenarium)/Liquid Culture (Anthracnose) Conidia of the fungus from cryogenic storage are directly mixed into nutrient broth (PDB potato dextrose broth). After placing a (DMSO) solution of test compound into a microtiter plate (96-well format), the nutrient broth containing the fungal spores is added. The test plates are incubated at 24° C. and the inhibition of growth is measured photometrically 3-4 days after application. […] […]-191.

[3] = test system: Monographella nivalis (Microdochium nivale); experiment: Monographella nivalis (Microdochium nivale) / liquid culture (foot rot cereals); assay type: cell-based; conditions: PDB potato dextrose broth, 24° C., 4-5 days after application, read-out: control of Monographella nivalis (inhibition of growth, photometric)
Method: Example B7: Monographella nivalis (Microdochium nivale)/Liquid Culture (Foot Rot Cereals) Conidia of the fungus from cryogenic storage are directly mixed into nutrient broth (PDB potato dextrose broth). After placing a (DMSO) solution of test compound into a microtiter plate (96-well format), the nutrient broth containing the fungal spores is added. The test plates are incubated at 24° C. and the inhibition of growth is determined photometrically 4-5 days after application. […] […]-190.

[4] = test system: Magnaporthe grisea (Pyricularia oryzae); experiment: whole plant or invertebrate; assay type: in vivo; conditions: foliar, read-out: control of Magnaporthe grisea (percent disease control compared to untreated)
[5] = test system: Mycosphaerella graminicola (Septoria tritici); experiment: Mycosphaerella graminicola (Septoria tritici) / liquid culture (Septoria blotch); assay type: cell-based; conditions: Zymoseptoria tritici, PDB potato dextrose broth, 24° C., 4-5 days after application, read-out: control of Mycosphaerella graminicola (inhibition of growth, photometric)
Method: Example B15: Mycosphaerella graminicola (Septoria tritici)/Liquid Culture (Septoria Blotch) Conidia of the fungus from cryogenic storage are directly mixed into nutrient broth (PDB potato dextrose broth). After placing a (DMSO) solution of test compound into a microtiter plate (96-well format), the nutrient broth containing the fungal spores is added. The test plates are incubated at 24° C. and the inhibition of growth is determined photometrically 4-5 days after application. […] […]-191.

Compound | pest or weed control at 200 ppm [1] [%] | inhibition at 20 ppm [2] [%] | inhibition at 20 ppm [3] [%] | pest or weed control at 200 ppm [4] [%] | inhibition at 20 ppm [5] [%]
COc1ccc(Nc2cc(F)c(Cl)c(F)c2)nc1C(=O)NC(C)(C)C [Compound P-153, N-tert-butyl-6-(4-chloro-3,5-difluoro-anilino)-3-methoxy-pyridine-2-carboxamide] | ≥ 80 | ≥ 80 | ≥ 80 | ≥ 80 | ≥ 80
COc1ccc(Nc2cncc(F)c2)nc1C(=O)NC1CCC1(C)C (centres unmarked) [Compound P-104, N-(2,2-dimethylcyclobutyl)-6-[(5-fluoro-3-pyridyl)amino]-3-methoxy-pyridine-2-carboxamide] | ≥ 80 | ≥ 80 | ≥ 80 | ≥ 80 | ≥ 80
COc1ccc(Nc2ccc3c(c2)OCO3)nc1C(=O)NC(C)(C)C [Compound P-159, 6-(1,3-benzodioxo1-5-ylamino)-N-tert-butyl-3-methoxy-pyridine-2-carboxamide] |  |  |  | ≥ 80 | 
CCOc1ccc(Nc2cc(F)nc(F)c2)nc1C(=O)NC(C)(C)C [Compound P-95, N-tert-butyl-6-[(2,6-difluoro-4-pyridyl)amino]-3-ethoxy-pyridine-2-carboxamide] | ≥ 80 | ≥ 80 | ≥ 80 | ≥ 80 | 
COc1ccc(Nc2cc(F)nc(F)c2)nc1C(=O)NC1(c2ccc(F)cc2)CC1 [Compound P-89, 6-[(2,6-difluoro-4-pyridyl)amino]-N-[1-(4-fluorophenyl)cyclopropyl]-3-methoxy-pyridine-2-carboxamide] |  |  |  | ≥ 80 | 
COc1ccc(Nc2cc(F)cc(F)c2)nc1C(=O)NC1CC2CCOC21 (centres unmarked) [Compound P-59, 6-(3,5-difluoroanilino)-3-methoxy-N-(2-oxabicyclo[3.2.0]heptan-7-yl)pyridine-2-carboxamide] | ≥ 80 | ≥ 80 |  |  | ≥ 80
COc1ccc(Nc2cnsc2)nc1C(=O)NC1CCC12CCCC2 (centres unmarked) [Compound P-33, 6-(isothiazol-4-ylamino)-3-methoxy-N-spiro[3.4]octan-3-yl-pyridine-2-carboxamide] |  | ≥ 80 | ≥ 80 | ≥ 80 | ≥ 80
COc1ccc(Nc2cc(F)nc(F)c2)nc1C(=O)NC1(C#N)CCC1 [Compound P-126, N-(1-cyanocyclobutyl)-6-[(2,6-difluoro-4-pyridyl)amino]-3-methoxy-pyridine-2-carboxamide] |  |  |  | ≥ 80 | 
COc1ccc(Nc2cc(F)nc(F)c2)nc1C(=O)NCC#CC(C)(C)C [Compound P-35, 6-[(2,6-difluoro-4-pyridyl)amino]-N-(4,4-dimethylpent-2-ynyl)-3-methoxy-pyridine-2-carboxamide] |  |  |  | ≥ 80 | ≥ 80
COc1ccc(Nc2cc(F)cc(F)c2)nc1C(=O)NC1(C#N)CCC1 [Compound P-129, N-(1-cyanocyclobutyl)-6-(3,5-difluoroanilino)-3-methoxy-pyridine-2-carboxamide] |  | ≥ 80 |  | ≥ 80 | ≥ 80
COc1ccc(Nc2cc(F)nc(F)c2)nc1C(=O)NCC(C)c1ccccc1 (centres unmarked) [Compound P-32, 6-[(2,6-difluoro-4-pyridyl)amino]-3-methoxy-N-(2-phenylpropyl)pyridine-2-carboxamide] |  |  |  | ≥ 80 | ≥ 80
COc1ccc(Nc2cc(F)cc(F)c2)nc1C(=O)NCc1cnn(C)n1 [Compound P-69, 6-(3,5-difluoroanilino)-3-methoxy-N-[(2-methyltriazol-4-yl)methyl]pyridine-2-carboxamide] |  |  |  | ≥ 80 | 
COc1ccc(Nc2cc(F)nc(F)c2)nc1C(=O)NC1(Cc2ccc(Cl)cc2)CC1 [Compound P-90, N-[1-[(4-chlorophenyl)methyl]cyclopropyl]-6-[(2,6-difluoro-4-pyridyl)amino]-3-methoxy-pyridine-2-carboxamide] |  | ≥ 80 |  | ≥ 80 | 
COc1ccc(Nc2cc(F)cc(F)c2)nc1C(=O)NC(C)c1ncc(C)o1 (centres unmarked) [Compound P-71, 6-(3,5-difluoroanilino)-3-methoxy-N-[1-(5-methyloxazol-2-yl)ethyl]pyridine-2-carboxamide] |  | ≥ 80 |  | ≥ 80 | ≥ 80
COc1ccc(N(C(C)=O)c2cc(F)nc(F)c2)nc1C(=O)NC1CCC1(C)C (centres unmarked) [Compound P-192, 6-[acetyl-(2,6-difluoro-4-pyridyl)amino]-N-(2,2-dimethylcyclobutyl)-3-methoxy-pyridine-2-carboxamide] | ≥ 80 |  |  | ≥ 80 | 
COc1ccc(Nc2cc(F)cc(F)c2)nc1C(=O)NC1(C)COC1 [Compound P-128, 6-(3,5-difluoroanilino)-3-methoxy-N-(3-methyloxetan-3-yl)pyridine-2-carboxamide] | ≥ 80 | ≥ 80 |  | ≥ 80 | ≥ 80
COc1ccc(Nc2ccc(Cl)c(F)c2)nc1C(=O)NCC(C)(C)C [Compound P-144, 6-(4-chloro-3-fluoro-anilino)-N-(2,2-dimethylpropyl)-3-methoxy-pyridine-2-carboxamide] |  | ≥ 80 | ≥ 80 | ≥ 80 | ≥ 80
COc1ccc(Nc2cc(F)nc(F)c2)nc1C(=O)NCC1(C)CCOC2(CCC2)C1 (centres unmarked) [Compound P-52, 6-[(2,6-difluoro-4-pyridyl)amino]-3-methoxy-N-[(8-methyl-5-oxaspiro[3.5]nonan-8-yl)methyl]pyridine-2-carboxamide] | ≥ 80 | ≥ 80 |  | ≥ 80 | 
COc1ccc(Nc2cc(F)cc(F)c2)nc1C(=O)NC(C)C1CCOCC1 (centres unmarked) [Compound P-61, 6-(3,5-difluoroanilino)-3-methoxy-N-(1-tetrahydropyran-4-ylethyl)pyridine-2-carboxamide] | ≥ 80 | ≥ 80 |  | ≥ 80 | 
COc1ccc(N(C#N)c2cc(F)cc(F)c2)nc1C(=O)NC1CCC1(C)C (centres unmarked) [Compound P-20, 6-(N-cyano-3,5-difluoro-anilino)-N-(2,2-dimethylcyclobutyl)-3-methoxy-pyridine-2-carboxamide] | ≥ 80 | ≥ 80 |  | ≥ 80 | ≥ 80
COc1ccc(Nc2cncc(F)c2)nc1C(=O)NC(C)(C)C [Compound P-103, N-tert-butyl-6-[(5-fluoro-3-pyridyl)amino]-3-methoxy-pyridine-2-carboxamide] | ≥ 80 |  |  | ≥ 80 | 
CC(C)(C)CNC(=O)c1cccc(Nc2cc(F)cc(F)c2)n1 [Compound P-111, 6-(3,5-difluoroanilino)-N-(2,2-dimethylpropyl)pyridine-2-carboxamide] |  | ≥ 80 | ≥ 80 | ≥ 80 | ≥ 80
COc1ccc(Nc2ccc(C#N)c(F)c2)nc1C(=O)NC(C)(C)C [Compound P-164, N-tert-butyl-6-(4-cyano-3-fluoro-anilino)-3-methoxy-pyridine-2-carboxamide] | ≥ 80 |  |  | ≥ 80 | 
COc1ccc(Nc2cc(F)cc(F)c2)nc1C(=O)NC1(C#N)CSC1 [Compound P-121, N-(3-cyanothietan-3-yl)-6-(3,5-difluoroanilino)-3-methoxy-pyridine-2-carboxamide] | ≥ 80 | ≥ 80 | ≥ 80 |  | ≥ 80
COc1ccc(Nc2cc(F)nc(F)c2)nc1C(=O)NCC1(C(F)(F)F)CC1 [Compound P-49, 6-[(2,6-difluoro-4-pyridyl)amino]-3-methoxy-N-[[1-(trifluoromethyl)cyclopropyl]methyl]pyridine-2-carboxamide] |  |  |  | ≥ 80 | 
COc1cnc(Nc2cc(F)nc(F)c2)nc1C(=O)NCCC(C)C [Compound P-9, 2-[(2,6-difluoro-4-pyridyl)amino]-N-isopentyl-5-methoxy-pyrimidine-4-carboxamide] | ≥ 80 |  |  |  | 

— patent publication US12458021B2, “Microbiocidal derivatives” (SYNGENTA CROP PROTECTION AG, priority 2019, dated 2025)
